Values joined by “and” are separate entries in the source; they are usually repeats but may differ in a detail not shown here. Equal entries are not always repeated.
System: 361931-004-R-J1-PDC multicell spheroid viability
Experiment: Anticancer human tumor 361931-004-R-J1-PDC patient-derived colon adenocarcinoma cell line growth inhibition [PI3K]
Settings: for viability, T/C: stronger effect = lower value
Summary of the method: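 Spheroid viability read-out. Co-cultures contained the tumor line plus HUVEC and human MSCs. Each agent was paired with a PI3K inhibitor (inavolisib, alpelisib, duvelisib, copanlisib) across half-log dilutions starting at clinical Cmax, or at 10 microM when Cmax was unknown.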

[1] = curve of first compound, second compound 0.0316 µM
[2] = curve of first compound, second compound 0.1 µM
[3] = curve of first compound, second compound 0.316 µM
[4] = curve of first compound, second compound 1 µM
[5] = second compound 0.0316 µM, first compound 0.0316 µM
[6] = second compound 0.0316 µM, first compound 0.1 µM
[7] = second compound 0.0316 µM, first compound 0.316 µM
[8] = second compound 0.0316 µM, first compound 1 µM
[9] = second compound 0.0316 µM, first compound 3.16 µM
[10] = second compound 0.0316 µM, first compound 10 µM
[11] = second compound 0.1 µM, first compound 0.0316 µM
[12] = second compound 0.1 µM, first compound 0.1 µM
[13] = second compound 0.1 µM, first compound 0.316 µM
[14] = second compound 0.1 µM, first compound 1 µM
[15] = second compound 0.1 µM, first compound 3.16 µM
[16] = second compound 0.1 µM, first compound 10 µM
[17] = second compound 0.316 µM, first compound 0.0316 µM
[18] = second compound 0.316 µM, first compound 0.1 µM
[19] = second compound 0.316 µM, first compound 0.316 µM
[20] = second compound 0.316 µM, first compound 1 µM
[21] = second compound 0.316 µM, first compound 3.16 µM
[22] = second compound 0.316 µM, first compound 10 µM
[23] = second compound 1 µM, first compound 0.0316 µM
[24] = second compound 1 µM, first compound 0.1 µM
[25] = second compound 1 µM, first compound 0.316 µM
[26] = second compound 1 µM, first compound 1 µM
[27] = second compound 1 µM, first compound 3.16 µM
[28] = second compound 1 µM, first compound 10 µM
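Also: spheroids exposed to agents for seven days before readout.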

CC(=O)c1c(C)c2cnc(Nc3ccc(N4CCNCC4)cn3)nc2n(C2CCCC2)c1=O was tested, and the viability, T/C (compound 0.000316 µM) was 103% [middle of 4 runs], the viability, T/C (compound 0.001 µM) was 105% [middle of 4 runs] and the viability, T/C (compound 0.00316 µM) was 100% [middle of 4 runs]. The viability, T/C (compound 0.01 µM) was 103% [middle of 4 runs], the viability, T/C (compound 0.0316 µM) was 108% (2×) and 92.8% and 104% and the viability, T/C (compound 0.1 µM) was 86.5% [middle of 4 runs]. For the same molecule, the IC50 (curve of compound) was greater than 0.1 µM.
CCCS(=O)(=O)Nc1ccc(F)c(C(=O)c2c[nH]c3ncc(-c4ccc(Cl)cc4)cc23)c1F + CC(Nc1ccc2c(c1)OCCn1cc(N3C(=O)OCC3C(F)F)nc1-2)C(N)=O was tested, and the IC50 (curve of first compound, second compound 0.00316 µM) was 5.17 µM, the IC50 (curve of first compound, second compound 0.01 µM) was 5.13 µM and the IC50 [1] was 5.27 µM. It also gave an IC50 [2] of 4.34 µM, an IC50 [3] of 4.03 µM and an IC50 [4] of 1.74 µM. It also gave a viability, T/C (second compound 0.00316 µM, first compound 0.0316 µM) of 102%, a viability, T/C (second compound 0.00316 µM, first compound 0.1 µM) of 100% and a viability, T/C (second compound 0.00316 µM, first compound 0.316 µM) of 84.9%. The viability, T/C (second compound 0.00316 µM, first compound 1 µM) was 82.8%, the viability, T/C (second compound 0.00316 µM, first compound 3.16 µM) was 83.8% and the viability, T/C (second compound 0.00316 µM, first compound 10 µM) was 4.25%. For the same molecule, the viability, T/C (second compound 0.01 µM, first compound 0.0316 µM) was 101%, the viability, T/C (second compound 0.01 µM, first compound 0.1 µM) was 94.7% and the viability, T/C (second compound 0.01 µM, first compound 0.316 µM) was 81.8%. The viability, T/C (second compound 0.01 µM, first compound 1 µM) was 83.6%, the viability, T/C (second compound 0.01 µM, first compound 3.16 µM) was 83.4% and the viability, T/C (second compound 0.01 µM, first compound 10 µM) was 4.05%. It also gave a viability, T/C [5] of 92.3%, a viability, T/C [6] of 86% and a viability, T/C [7] of 85.5%. For the same molecule, the viability, T/C [8] was 83%, the viability, T/C [9] was 87.2% and the viability, T/C [10] was 3.87%. It also gave a viability, T/C [11] of 88.5%, a viability, T/C [12] of 81.5% and a viability, T/C [13] of 89.1%. It also gave a viability, T/C [14] of 73%, a viability, T/C [15] of 70.2% and a viability, T/C [16] of 4.14%. It also gave a viability, T/C [17] of 86.7%, a viability, T/C [18] of 72.6% and a viability, T/C [19] of 63%. For the same molecule, the viability, T/C [20] was 73.5%, the viability, T/C [21] was 62.5% and the viability, T/C [22] was 3.6%. For the same molecule, the viability, T/C [23] was 74.4%, the viability, T/C [24] was 65.7% and the viability, T/C [25] was 70%. The viability, T/C [26] was 50.3%, the viability, T/C [27] was 46.6% and the viability, T/C [28] was 2.59%.
C#Cc1c(F)ccc2cc(O)cc(-c3ncc4c(N5CC6CCC(C5)N6)nc(OCC56CCCN5CC(F)C6)nc4c3F)c12 (stereo unspecified) + CC(Nc1ncnc2nc[nH]c12)c1cc2cccc(Cl)c2c(=O)n1-c1ccccc1 was tested, and the IC50 [1] was greater than 10 µM, the IC50 [2] was greater than 10 µM and the IC50 [3] was greater than 10 µM. It also gave an IC50 [4] greater than 10 µM, an IC50 (curve of first compound, second compound 3.16 µM) greater than 10 µM and an IC50 (curve of first compound, second compound 10 µM) greater than 10 µM. For the same molecule, the viability, T/C [5] was 98.8%, the viability, T/C [6] was 105% and the viability, T/C [7] was 105%. It also gave a viability, T/C [8] of 102%, a viability, T/C [9] of 98.9% and a viability, T/C [10] of 95.1%. It also gave a viability, T/C [11] of 105%, a viability, T/C [12] of 103% and a viability, T/C [13] of 96.8%. It also gave a viability, T/C [14] of 100%, a viability, T/C [15] of 104% and a viability, T/C [16] of 93%. The viability, T/C [17] was 106%, the viability, T/C [18] was 99.7% and the viability, T/C [19] was 105%. For the same molecule, the viability, T/C [20] was 100%, the viability, T/C [21] was 102% and the viability, T/C [22] was 93.3%. For the same molecule, the viability, T/C [23] was 97.7%, the viability, T/C [24] was 98.6% and the viability, T/C [25] was 100%. For the same molecule, the viability, T/C [26] was 95.2%, the viability, T/C [27] was 104% and the viability, T/C [28] was 84.4%. The viability, T/C (second compound 3.16 µM, first compound 0.0316 µM) was 104%, the viability, T/C (second compound 3.16 µM, first compound 0.1 µM) was 107% and the viability, T/C (second compound 3.16 µM, first compound 0.316 µM) was 103%. For the same molecule, the viability, T/C (second compound 3.16 µM, first compound 1 µM) was 106%, the viability, T/C (second compound 3.16 µM, first compound 3.16 µM) was 107% and the viability, T/C (second compound 3.16 µM, first compound 10 µM) was 81.9%. For the same molecule, the viability, T/C (second compound 10 µM, first compound 0.0316 µM) was 104%, the viability, T/C (second compound 10 µM, first compound 0.1 µM) was 99.8% and the viability, T/C (second compound 10 µM, first compound 0.316 µM) was 91.9%. For the same molecule, the viability, T/C (second compound 10 µM, first compound 1 µM) was 91%, the viability, T/C (second compound 10 µM, first compound 3.16 µM) was 90% and the viability, T/C (second compound 10 µM, first compound 10 µM) was 79%.

From PubChem BioAssay AID1963979 (Molecular Pharmacology Branch, DTP, NCI, 2024)
